In patent publication US20240042045A1, “NANOPARTICLES CONTAINING MULTIPLE CLEAVABLE PRODUGS FOR CANCER THERAPY” (The University of Chicago, priority 2020, published 2024):
Counter-ions that a name gives are not always drawn. Like-named read-outs stand apart in the source and are kept apart here.

What was measured:
[1] = system: H460 cells; experiment: In vitro cytotoxicity in H460 cells (MTS assay); assay type: cell-based, human
[2] = system: 4T1 cells; experiment: In vitro cytotoxicity in 4T1 cells (MTS assay); assay type: cell-based, murine; conditions: 48 h
[3] = Dynamic light scattering (DLS) of particles; assay type: physicochemical; conditions: DLS of OxPt/GEM-core nanoparticles made with the named Chol-disulfide prodrug
Method: Synthesis and characterization of OxPt/GEM/SN38 core-shell nanoparticle NCP particles with OxPt-bp and gemcitabine monophosphate (GMP) in the core and Chol-SN38 on the shell, referred to as “OxPt/GMP/SN38,” was synthesized in two steps. […] An aqueous solution of Zn(NO3)2 (60 mg, 600 mg/mL) was added to a 5 mL of 0.3M Triton X-100/1.5M 1-hexanol in cyclohexane and stirred vigorously for 5 min. The Zn(NO3)2-containing microemulsion was added dropwise to the OxPt-bp-containing microemulsion and stirred vigorously for 30 min at room temperature. After the addition of 10 mL ethanol, OxPt-bare was obtained by centrifugation at 11,628×g. The resulting pellet was washed twice with THF/ethanol and finally re-dispersed in THF. The loadings of OxPt in the particles were determined by ICP-MS (Agilent 7700x, Agilent Technologies, Santa Clara, California, United States of America) after digestion with nitric acid. The particle size and zeta potential were determined by dynamic light scattering using a Zetasizer (Nano ZS, Malvern, United Kingdom).

[4] = system: LL/2 lung cancer cells; experiment: Cytotoxicity of Chol-PTX; assay type: cell-based
[5] = Conversion of SN38-TMS to SN38 at pH 5.5 and 7.4; assay type: physicochemical; conditions: for SN38-TMS converted to SN38: pH=5.5, 37° C.
Method: SN38-TMS was incubated in acidic conditions mimicking endosomes at 37° C. At pH=5.5, 70% SN38-TMS was converted to SN38 in 24 h and 92% […] SN38-TMS was converted to SN38 in 48 h.

[6] = cited from earlier work
[7] = system: CT26 and MC38 cells; experiment: cells; conditions: Mus musculus
[8] = system: CT26 cells; experiment: In vitro cytotoxicity in CT26 cells; assay type: cell-based, murine
Method: (§1) The cell viability was measured by […].

[9] = system: MC38 cells; experiment: In vitro cytotoxicity in MC38 cells; assay type: cell-based, murine
Method: as §1

[10] = system: KPC cells; experiment: In vitro cytotoxicity in KPC cells (MTS assay); assay type: cell-based, murine; conditions: 48 h
Method: (§2) The cell viability was measured by MTS assay.

[11] = system: Panc02 cells; experiment: In vitro cytotoxicity in Panc02 cells (MTS assay); assay type: cell-based, murine
Method: as §2

[12] = system: LDL; experiment: Binding kinetics to LDL in rat plasma at 37° C.; conditions: for binding to LDL: Chol-SN38 measured for Chol-SN38 and OxPt/SN38
[13] = system: lipoproteins; experiment: Distribution in lipoproteins after incubation in rat plasma (NaBr gradient ultracentrifugation, LC-MS); conditions: 37° C., 3 h, Chol-SN38 measured for OxPt/SN38
Description: Lipoproteins were separated based on their densities by NaBr gradient ultracentrifugation.

[14] = system: CT26 and MC38 cells
[15] = system: apoptosis/necrosis; experiment: Apoptosis/necrosis analysis by flow cytometry (Annexin V / PI); assay type: cell-based; conditions: for percentage of apoptosis: flow cytometry
Method: Apoptosis/necrosis analysis was also performed on OxPt and/or SN38 treated cells by flow cytometry.

[16] = system: apoptosis/necrosis; experiment: Apoptosis/necrosis analysis of cells treated with Carb and/or DTX; assay type: cell-based; conditions: 10 μM Carb and/or DTX
Method: Apoptosis/necrosis analysis was also performed on cells treated with 10 μM Carb and/or DTX by flow cytometry.

[17] = target: albumin (Homo sapiens, UniProt P02768); experiment: ITC binding to albumin
Description: (§3) LDL is the key transporter of cholesterol and cholesterol esters to peripheral cells. It was hypothesized that LDL would strongly bind to Chol-SN38 to enhance its delivery to tumors via LDLR-mediated endocytosis.

[18] = system: CT26 and MC38 cells; experiment: In vitro cytotoxicity, values not assigned to one colon cancer cell line
[19] = system: LDL; experiment: Isothermal titration calorimetry (ITC) binding to LDL
Method: as §3
Apparent LDL binding affinity of two control particles, OxPt NCP without chol and Chol-SN38 micelle (without the NCP core) was determined to understand which components of the particles bind to LDL.

[20] = CT26 cells, 48 h, for OxPt/SN38 the OxPt IC50, read-out: IC50
[21] = MC38 cells, 48 h, for OxPt/SN38 the OxPt IC50, read-out: IC50
[22] = Panc02 cells, 48 h, read-out: IC50

albumin, sequence (P02768 25-609, species assumed): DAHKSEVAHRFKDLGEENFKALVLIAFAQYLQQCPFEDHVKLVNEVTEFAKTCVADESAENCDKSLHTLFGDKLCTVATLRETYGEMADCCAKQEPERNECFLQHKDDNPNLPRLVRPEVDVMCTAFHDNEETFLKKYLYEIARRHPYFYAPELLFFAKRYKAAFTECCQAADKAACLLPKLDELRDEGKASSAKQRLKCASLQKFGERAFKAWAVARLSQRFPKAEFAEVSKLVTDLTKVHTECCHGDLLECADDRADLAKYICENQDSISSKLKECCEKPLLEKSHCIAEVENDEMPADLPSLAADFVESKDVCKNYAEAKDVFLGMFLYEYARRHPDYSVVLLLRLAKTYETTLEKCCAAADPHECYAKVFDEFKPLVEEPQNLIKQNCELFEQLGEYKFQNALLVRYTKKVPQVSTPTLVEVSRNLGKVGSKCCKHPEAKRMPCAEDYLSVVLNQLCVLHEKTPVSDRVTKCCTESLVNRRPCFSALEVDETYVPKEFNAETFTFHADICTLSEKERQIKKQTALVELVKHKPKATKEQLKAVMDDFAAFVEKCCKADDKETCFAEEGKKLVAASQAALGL

Compound: CC(=O)O[C@@]12CO[C@@H]1C[C@H](O)[C@@]1(C)C(=O)[C@H](O)C3=C(C)[C@@H](OC(=O)[C@H](OC(=O)OCOC(=O)CCC(=O)O[C@H]4CC[C@@]5(C)C(=CC[C@H]6[C@@H]7CC[C@H]([C@H](C)CCCC(C)C)[C@@]7(C)CC[C@@H]65)C4)[C@@H](NC(=O)OC(C)(C)C)c4ccccc4)C[C@](O)([C@@H](OC(=O)c4ccccc4)[C@H]21)C3(C)C [Chol-DTX, Cholesterol-Docetaxel]
- IC50 ([1]; Homo sapiens, NCI-H460, 48 h): 11.4 µM
- IC50 ([2]; Mus musculus): 15.3 µM

Compound: CCc1c2c(nc3ccc(OC(=O)OCCSSCCOC(=O)O[C@H]4CC[C@@]5(C)C(=CC[C@H]6[C@@H]7CC[C@H]([C@H](C)CCCC(C)C)[C@@]7(C)CC[C@@H]65)C4)cc13)-c1cc3c(c(=O)n1C2)COC(=O)[C@@]3(CC)O[Si](C)(C)C [Chol-SS-SN38]
- PDI [3]: 0.38
- Z-Average (nm) [3]: 172.3 nm

Compound: CC[C@@]1(OC(=O)OCCSSCCOC(=O)O[C@H]2CC[C@@]3(C)C(=CC[C@H]4[C@@H]5CC[C@H]([C@H](C)CCCC(C)C)[C@@]5(C)CC[C@@H]43)C2)C(=O)OCc2c1cc1n(c2=O)Cc2cc3ccccc3nc2-1 [Chol-SS-CPT]
- PDI [3]: 0.434
- Z-Average (nm) [3]: 263.2 nm

Compound: CC(=O)O[C@H]1C(=O)[C@]2(C)[C@@H](OC(=O)OCOC(=O)CCC(=O)O[C@H]3CC[C@@]4(C)C(=CC[C@H]5[C@@H]6CC[C@H]([C@H](C)CCCC(C)C)[C@@]6(C)CC[C@@H]54)C3)C[C@H]3OC[C@@]3(OC(C)=O)[C@H]2[C@H](OC(=O)c2ccccc2)[C@]2(O)C[C@H](OC(=O)[C@H](O)[C@@H](NC(=O)c3ccccc3)c3ccccc3)C(C)=C1C2(C)C [Chol-PTX, Cholesterol-Paclitaxel]
- IC50 [4]: 3.95 µM

Compound: CCc1c2c(nc3ccc(OC(=O)OC(C)(C)C)cc13)-c1cc3c(c(=O)n1C2)COC(=O)[C@@]3(CC)OC(=O)OCCSSCCOC(=O)O[C@H]1CC[C@@]2(C)C(=CC[C@H]3[C@@H]4CC[C@H]([C@H](C)CCCC(C)C)[C@@]4(C)CC[C@@H]32)C1 [Chol-SS-SN38-Boc]
- PDI [3]: 0.211
- Z-Average (nm) [3]: 96.79 nm

Compound: CCc1c2c(nc3ccc(O)cc13)-c1cc3c(c(=O)n1C2)COC(=O)[C@@]3(CC)O[Si](C)(C)C [SN38-TMS, 20-O-Trimethylsilyl SN38]
- SN38 released from SN38-TMS ([5]; pH 7.4, 24 h): 26%
- SN38 released from SN38-TMS ([5]; pH 7.4, 48 h): 63%
- SN38-TMS converted to SN38 ([5]; 24 h): 70%
- SN38-TMS converted to SN38 ([5]; 48 h): 92%

Compound: CC(C)CCC[C@@H](C)[C@H]1CC[C@H]2[C@@H]3CC=C4C[C@@H](O)CC[C@]4(C)[C@H]3CC[C@]12C [cholesterol]
- Log P [6]: 7.02

Compound: CCc1c2c(nc3ccc(OC(=O)N4CCC(N5CCCCC5)CC4)cc13)-c1cc3c(c(=O)n1C2)COC(=O)[C@]3(O)CC [irinotecan hydrochloride]
- Log P [6]: −0.45

Compound: CCc1c2c(nc3ccc(OC(=O)N4CCC(N5CCCCC5)CC4)cc13)-c1cc3c(c(=O)n1C2)COC(=O)[C@]3(O)CC [Irinotecan, irinotecan]
- IC50 [7]: ~80 µM
- IC50 ([8]; Mus musculus, CT26, 48 h, read-out: IC50): 79.4 ± 6.94 µM
- IC50 ([9]; Mus musculus, MC-38, 48 h, read-out: IC50): 88.4 ± 7.48 µM

Compound: Nc1ccn([C@@H]2O[C@H](CO)[C@@H](O)C2(F)F)c(=O)n1 [GEM, gemcitabine]
- IC50 ([10]; Mus musculus, KPC cells, read-out: IC50): 670 ± 180 nM
- IC50 ([11]; Mus musculus, Panc02 cells, 48 h, read-out: IC50): 110 ± 30 nM

Compound: CCc1c2c(nc3ccc(O)cc13)-c1cc3c(c(=O)n1C2)COC(=O)[C@]3(O)CC [SN38]
- IC50 [8, 20]: 0.22 ± 0.05 µM
- binding to LDL [12]: 17.1±1.5%
- distribution in HDL [13]: 14%
- distribution in LDL fraction [13]: 17%
- distribution in albumin fraction [13]: 69%
- IC50 [9, 21]: 0.24 ± 0.08 µM
- IC50 ([10]; KPC cells, read-out: IC50): 300 ± 90 nM
- IC50 [11, 22]: 170 ± 120 nM
- IC50 of SN38 ([14]; cell line not stated): 86 ng/mL
- early apoptotic Annexin V+/PI− cells [15]: 25.7±1.5%
- percentage of apoptosis [15]: 34.8%
- Log P [6]: 3.37

Compound: CC(=O)O[C@@]12CO[C@@H]1C[C@H](O)[C@@]1(C)C(=O)[C@H](O)C3=C(C)[C@@H](OC(=O)[C@H](O)[C@@H](NC(=O)OC(C)(C)C)c4ccccc4)C[C@@](O)([C@@H](OC(=O)c4ccccc4)[C@H]21)C3(C)C [DTX, docetaxel]
- IC50 ([1]; Homo sapiens, NCI-H460, 48 h): 3.69 µM
- IC50 ([2]; Mus musculus): 4.7 µM
- percentage of apoptosis [16]: 3.30%

Compound: CCc1c2c(nc3ccc(O)cc13)-c1cc3c(c(=O)n1C2)COC(=O)C3(CC)OC(=O)OC(C)(C)C (stereo not shown) [SN38-Boc, 20-O-Boc-SN38]
- cytotoxicity ([14]; concentrations up to 300 μM): no cytotoxicity

Compound: CCc1c2c(nc3ccc(OC(=O)OCOC(=O)CCC(=O)O[C@H]4CC[C@@]5(C)C(=CC[C@H]6[C@@H]7CC[C@H]([C@H](C)CCCC(C)C)[C@@]7(C)CC[C@@H]65)C4)cc13)-c1cc3c(c(=O)n1C2)COC(=O)[C@@]3(CC)O[Si](C)(C)C [Chol-SN38, 7-ethyl-10-(((((cholest-5-en-3-oxy)-4-oxobutanoyl)oxy)methoxy)-carbonyl)oxyl-20-O-trimethylsilyl camptothecin]
- Kd [17]: 4.44 mM
- cytotoxicity relative to irinotecan [18]: 5-10 times
- IC50 ([8]; Mus musculus, CT26, 48 h, CT26 cells, 48 h, for OxPt/SN38 the OxPt IC50): 7.41 ± 1.03 µM
- time to reach equilibrium binding to LDL [12]: ≤ 1 h
- binding to LDL [12]: 74.5±3.6%
- distribution in HDL [13]: 5%
- distribution in LDL fraction [13]: 86%
- distribution in VLDL [13]: 9%
- IC50 ([9]; Mus musculus, MC-38, 48 h, MC38 cells, 48 h, for OxPt/SN38 the OxPt IC50): 10.2 ± 1.99 µM
- IC50 ([10]; Mus musculus): 3180 ± 1010 nM
- IC50 ([11]; Mus musculus, Panc02, 48 h): 14600 ± 4870 nM
- Ka to LDL relative to binding affinity to albumin [19]: > 2000 times
- binding constant (Ka) to LDL ([19]; ITC, apparent Ka for the particle): (4.97±0.24)×10^5 M^−1
- Binding affinity Ka ([19]; protein LDL): 49.7 ± 2.43 10^4 M^−1

Compound: gemcitabine monophosphate [GMP]
- IC50 ([10]; KPC cells, read-out: IC50): 300 ± 70 nM
- IC50 [11, 22]: 60 ± 20 nM

Compound: N.N.O=C([O-])C1(C(=O)[O-])CCC1.[Pt+2] [Carb, carboplatin]
- IC50 ([1]; 48 h): 3.9 µM
- IC50 [2]: 0.91 µM
- percentage of apoptosis [16]: 2.90%

Compound: O=C1[O][Pt]2([NH][C@@H]3CCCC[C@H]3[NH]2)[O]C1=O [OxPt, oxaliplatin]
- IC50 [8, 20]: 9.11 ± 0.72 µM
- IC50 [9, 21]: 11.4 ± 1.68 µM
- IC50 ([10]; KPC cells, read-out: IC50): 5940 ± 1730 nM
- IC50 [11, 22]: 14000 ± 4880 nM
- early apoptotic Annexin V+/PI− cells [15]: 8.0±0.6%
- percentage of apoptosis [15]: 12.1%
